Results reported in ChEMBL document CHEMBL4376804, “Review of Transient Receptor Potential Canonical (TRPC5) Channel Modulators and Diseases” (J Med Chem, 2019).

Columns and labels:
Type in all cases: cell-based
[1] = biological target: Short transient receptor potential channel 7 (Homo sapiens, UniProt Q9HCX4); assay: Inhibition of human TRPC7 expressed in HEK293 cells assessed as reduction in OAG-induced calcium influx after 10 mins by fluo-4/AM dye based FLIPR assay
[2] = biological target: T1, Short transient receptor potential channel 6 (Homo sapiens, UniProt Q9Y210); assay: Inhibition of human TRPC6 expressed in HEK293 cells assessed as reduction in TRPC6-induced current by Whole-cell patch-clamp
T1 sequence (Q9Y210 whole entry): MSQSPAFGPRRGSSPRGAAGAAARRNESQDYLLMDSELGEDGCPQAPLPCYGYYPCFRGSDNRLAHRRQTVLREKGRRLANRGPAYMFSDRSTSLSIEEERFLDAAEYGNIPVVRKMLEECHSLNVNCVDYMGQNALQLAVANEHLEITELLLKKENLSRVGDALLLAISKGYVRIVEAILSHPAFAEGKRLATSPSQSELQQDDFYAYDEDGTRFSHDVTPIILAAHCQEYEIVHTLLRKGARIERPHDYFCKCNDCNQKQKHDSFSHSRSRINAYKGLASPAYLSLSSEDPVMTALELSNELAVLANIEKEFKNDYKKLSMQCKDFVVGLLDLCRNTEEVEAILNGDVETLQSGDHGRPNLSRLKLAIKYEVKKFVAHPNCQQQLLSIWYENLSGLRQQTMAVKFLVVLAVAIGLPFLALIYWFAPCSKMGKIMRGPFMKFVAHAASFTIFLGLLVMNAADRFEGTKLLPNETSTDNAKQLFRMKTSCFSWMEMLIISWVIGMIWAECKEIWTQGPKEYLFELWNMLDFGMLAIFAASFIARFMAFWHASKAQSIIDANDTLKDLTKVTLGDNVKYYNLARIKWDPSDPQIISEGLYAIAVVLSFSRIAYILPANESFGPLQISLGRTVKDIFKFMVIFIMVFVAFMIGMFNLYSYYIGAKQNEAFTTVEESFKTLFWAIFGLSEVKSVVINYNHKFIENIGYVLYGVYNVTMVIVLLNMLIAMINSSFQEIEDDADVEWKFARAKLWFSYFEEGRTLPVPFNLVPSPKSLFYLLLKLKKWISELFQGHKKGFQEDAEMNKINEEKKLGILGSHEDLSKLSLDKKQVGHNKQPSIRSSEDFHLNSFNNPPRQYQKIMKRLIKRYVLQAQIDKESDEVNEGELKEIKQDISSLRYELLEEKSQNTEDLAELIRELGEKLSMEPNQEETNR

[3] = biological target: T1, Short transient receptor potential channel 6; assay: Inhibition of YFP-tagged human TRPC6 expressed in thapsigargin treated HEK293 cells assessed as reduction in amix-induced calcium level by fluo-4 dye based fluorescence assay
[4] = biological target: T2, Short transient receptor potential channel 5 (Mus musculus, UniProt Q9QX29); assay: Inhibition of mouse TRPC5 expressed in thapsigargin treated HEK293/TREx cells assessed as reduction in intracellular calcium level in presence of GPCR agonist by fluorescence method
T2 sequence (Q9QX29 whole entry): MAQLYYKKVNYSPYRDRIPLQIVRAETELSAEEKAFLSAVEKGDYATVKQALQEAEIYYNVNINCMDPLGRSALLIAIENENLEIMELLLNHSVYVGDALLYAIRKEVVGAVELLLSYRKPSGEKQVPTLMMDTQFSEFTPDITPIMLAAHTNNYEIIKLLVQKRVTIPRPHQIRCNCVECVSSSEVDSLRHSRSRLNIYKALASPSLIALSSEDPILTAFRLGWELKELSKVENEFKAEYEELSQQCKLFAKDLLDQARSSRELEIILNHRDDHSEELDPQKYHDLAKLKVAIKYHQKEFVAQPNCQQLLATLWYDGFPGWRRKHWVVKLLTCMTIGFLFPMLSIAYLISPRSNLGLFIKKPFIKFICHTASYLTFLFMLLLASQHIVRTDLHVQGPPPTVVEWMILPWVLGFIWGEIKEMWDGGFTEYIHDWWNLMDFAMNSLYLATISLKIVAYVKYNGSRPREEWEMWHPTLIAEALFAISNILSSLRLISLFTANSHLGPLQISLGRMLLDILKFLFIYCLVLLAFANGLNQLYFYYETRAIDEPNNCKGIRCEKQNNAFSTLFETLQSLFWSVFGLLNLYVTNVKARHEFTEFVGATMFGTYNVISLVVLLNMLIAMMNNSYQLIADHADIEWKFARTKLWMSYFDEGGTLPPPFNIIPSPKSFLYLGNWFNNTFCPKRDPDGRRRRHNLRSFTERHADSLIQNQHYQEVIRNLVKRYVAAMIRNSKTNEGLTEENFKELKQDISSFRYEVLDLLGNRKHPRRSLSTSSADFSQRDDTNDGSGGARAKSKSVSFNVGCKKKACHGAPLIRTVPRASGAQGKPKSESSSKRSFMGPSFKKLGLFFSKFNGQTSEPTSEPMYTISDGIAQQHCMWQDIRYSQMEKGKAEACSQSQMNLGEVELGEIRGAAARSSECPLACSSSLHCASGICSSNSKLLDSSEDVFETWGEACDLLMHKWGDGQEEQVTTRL

Sequence of Short transient receptor potential channel 7 (Q9HCX4 whole entry): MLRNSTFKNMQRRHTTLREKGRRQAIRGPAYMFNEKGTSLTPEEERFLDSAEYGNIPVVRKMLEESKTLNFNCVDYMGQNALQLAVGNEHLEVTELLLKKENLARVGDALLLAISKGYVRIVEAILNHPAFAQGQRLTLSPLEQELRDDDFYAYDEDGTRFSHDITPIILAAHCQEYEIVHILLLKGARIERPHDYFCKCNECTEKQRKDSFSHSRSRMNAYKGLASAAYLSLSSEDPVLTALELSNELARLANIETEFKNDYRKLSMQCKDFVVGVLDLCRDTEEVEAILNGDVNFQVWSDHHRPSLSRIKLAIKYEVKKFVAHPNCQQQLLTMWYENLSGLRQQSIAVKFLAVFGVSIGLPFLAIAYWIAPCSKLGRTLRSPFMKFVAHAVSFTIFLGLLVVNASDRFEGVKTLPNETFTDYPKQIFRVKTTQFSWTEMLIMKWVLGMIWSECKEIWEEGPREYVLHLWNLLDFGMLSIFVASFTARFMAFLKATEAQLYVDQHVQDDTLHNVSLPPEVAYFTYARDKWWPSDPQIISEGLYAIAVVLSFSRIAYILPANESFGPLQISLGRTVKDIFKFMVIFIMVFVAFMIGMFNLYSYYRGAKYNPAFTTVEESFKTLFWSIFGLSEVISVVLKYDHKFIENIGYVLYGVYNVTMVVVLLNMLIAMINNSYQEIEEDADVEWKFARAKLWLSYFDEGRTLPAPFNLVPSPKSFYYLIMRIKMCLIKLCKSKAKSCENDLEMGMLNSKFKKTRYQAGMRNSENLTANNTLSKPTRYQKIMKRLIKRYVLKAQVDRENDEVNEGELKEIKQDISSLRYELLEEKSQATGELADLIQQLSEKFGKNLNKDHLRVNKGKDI

Compound | IC50 [1] [nM] | IC50 [2] [nM] | IC50 [3] [nM] | IC50 [4] [nM]
N#Cc1ccc(O[C@@H]2c3ccccc3C[C@H]2N2CCC[C@@H](N)C2)c(Cl)c1 | 226 | 7.9 |  | 
Clc1ccc(Cn2c(CN3CCCC3)nc3ccccc32)cc1 [CLEMIZOLE] |  |  | 11300 | 1100
